Where a name gives a salt, the structure may show the parent alone.
Tests used:
NCI-H69 cells = assay: In vitro cell inhibition assay - NCI-H69 cell proliferation (CellTiter-Glo); type: cell-based
In short: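 Proliferation was assessed after a 7-day compound treatment of cells seeded at 1×10^3 per well. IC50 values came from fitting inhibition rates derived from CellTiter-Glo luminescence.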

pan-HDAC = assay: In vitro enzyme inhibition assay - HDAC (HDAC-Glo I/II), pan-HDAC; type: biochemical
In short: (§1)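 The compound, serially diluted 5-fold in DMSO across 8 concentrations starting from a 1 mM stock, was made up as 4× working solutions in HDAC buffer. It was then tested in the HDAC-Glo I/II system, and luminescence was recorded. IC50 values came from variable-slope four-parameter curves of inhibition rate.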

NCI-H1417 cells = assay: In vitro cell inhibition assay - H1417 cell proliferation (CellTiter-Glo); type: cell-based
In short: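 Cells exposed to 8 compound concentrations (5-fold dilutions) in BEGM with 10% FBS for 7 days at 37° C., 5% CO2. Viable cells measured by CellTiter-Glo luminescence; inhibition versus no-inhibitor and no-cell controls, IC50 fitted.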

LSD1 = LSD1 (Homo sapiens (Human), UniProt O60341); assay: In vitro enzyme inhibition assay - LSD1 (HTRF); type: biochemical
DU145 cells = assay: In vitro cell inhibition assay - DU145 cell proliferation (CellTiter-Glo); type: cell-based
Method: 5. In Vitro Cell Inhibition Assay—DU145 Cell Proliferation
The inhibitory effect of the compounds on cell proliferation was assessed by detecting the number of viable cells using the CellTiter-Glo® reagent. DU145 cells in the logarithmic growth phase were collected and inoculated into transparent bottom 96-well plates at a density 1×10^3 cells per well with 100 μL medium, and incubated at 37° C., 5% CO2 overnight. The compounds were sequentially diluted in a 5-fold concentration gradient with DMSO to obtain 8 different concentrations. These were then diluted with RPMI-640 (containing 10% FBS) cell culture medium to obtain the compound working solution (2×), which was added to the cell supernatant at 100 μL per well. The incubation continued for 6 days at 37° C., 5% CO2. The plate was then removed and equilibrated at room temperature (25° C.) along with the CellTiter-Glo® mixing reagent for 10-30 minutes. After centrifugation, 120 μL of the culture medium was carefully aspirated from each well, and 60 μL of CellTiter-Glo® reagent was added. The cells were thoroughly mixed with the CellTiter-Glo® mixing reagent using a microplate shaker for 2 min. and then incubated at room temperature for 10 min. The 96-well plate was subsequently placed on a multifunctional microplate reader to record the Luminescence values (RLU).
The inhibition rate was calculated using the following formula: […]
Note: ‘Negative’ refers to the group without inhibitors; ‘Blank’ refers to the group without cells.
The IC50 value was determined by fitting the inhibition rate by GraphPad Prism software.

HDAC8 = HDAC8 (Homo sapiens (Human), UniProt Q9BY41); assay: In vitro enzyme inhibition assay - HDAC (HDAC-Glo I/II), HDAC8; type: biochemical; conditions: read-out: HDAC IC50 (nM) HDAC 8
In short: as §1

[1] = Homo sapiens, NCI-H69, H69 small cell lung cancer cell proliferation
[2] = Homo sapiens, NCI-H1417, H1417 small cell lung cancer cell proliferation
[3] = Homo sapiens, DU-145, Du145 prostate cancer cell proliferation
[4] = H69 small cell lung cancer cell proliferation
[5] = H1417 small cell lung cancer cell proliferation
[6] = Du145 prostate cancer cell proliferation

Chain of HDAC8 (Q9BY41 whole entry): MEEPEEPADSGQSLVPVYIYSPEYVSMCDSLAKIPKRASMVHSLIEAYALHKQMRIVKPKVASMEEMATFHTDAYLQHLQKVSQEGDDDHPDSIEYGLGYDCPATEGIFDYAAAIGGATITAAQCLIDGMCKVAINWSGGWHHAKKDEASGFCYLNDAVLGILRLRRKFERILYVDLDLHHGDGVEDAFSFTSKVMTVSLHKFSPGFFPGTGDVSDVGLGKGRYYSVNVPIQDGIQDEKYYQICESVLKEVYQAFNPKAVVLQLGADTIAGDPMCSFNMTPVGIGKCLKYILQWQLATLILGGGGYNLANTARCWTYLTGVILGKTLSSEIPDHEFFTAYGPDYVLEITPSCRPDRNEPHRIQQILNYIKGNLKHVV

IC50 (NCI-H69 cells; [1]) [nM] | IC50 (pan-HDAC) [nM] | IC50 (NCI-H1417 cells; [2]) [nM] | IC50 (LSD1) [nM] | IC50 (DU145 cells; [3]) [nM] | IC50 (HDAC8) [nM] | IC50 (NCI-H69 cells; [4]) [nM] | IC50 (NCI-H1417 cells; [5]) [nM] | IC50 (DU145 cells; [6]) [nM] | SMILES
304 | 49 | 335 | 63.6 | 628 | 87.2 | – | – | – | COc1cc(-c2cnc(N3CCC(NCc4ccc(/C=C/C(=O)NO)cn4)CC3)c(C#N)c2-c2ccc(C#N)c(F)c2)ccc1O [Example 95, (E)-3-(6-((1-(3-Cyano-4-(4-cyano-3-fluorophenyl)-5-(4-hydroxy-3-methoxyphenyl)pyridin-2-yl)piperidin-4-yl)amino)methyl) pyridin-3-yl)-N-hydroxyacrylamide formate]
– | 110 | – | 209 | – | 542 | 407 | 256 | 1550 | COc1ccc(-c2cnc(N3CCC(N)(c4ccc(/C=C/C(=O)NO)cc4)CC3)c(C#N)c2-c2ccc(C#N)c(F)c2)cc1O [Example 85, (E)-3-(4-(4-amino-1-(3-cyano-4-(4-cyano-3-fluorophenyl)-5-(3-hydroxy-4-methoxyphenyl)pyridin-2-yl))piperidin-4-yl)phenyl)-N-hydroxyacrylamide formate]
97.3 | 50.9 | 11.8 | 9.5 | 122 | 120 | – | – | – | COc1cc(-c2cnc(N3CCC(N(C)Cc4ccc(/C=C/C(=O)NO)cc4)CC3)c(C#N)c2-c2ccc(C#N)c(F)c2)ccc1O [Example 99, (E)-3-(4-(((1-(3-Cyano-4-(4-cyano-3-fluorophenyl)-5-(4-hydroxy-3-methoxyphenyl)pyridin-2-yl)piperidin-4-yl)(methyl)amino)methyl)phenyl)-N-hydroxyacrylamide formate]
104 | 35.5 | 118 | 49.5 | 313 | 36 | – | – | – | COc1cc(-c2cnc(N3CCC(NCc4ccc(/C=C/C(=O)NO)cc4)CC3)c(C#N)c2-c2ccc(C#N)c(F)c2)ccc1O [Example 100, (E)-3-(4-((1-(3-Cyano-4-(4-cyano-3-fluorophenyl)-5-(4-hydroxy-3-methoxyphenyl)pyridin-2-yl)piperidin-4-yl)amino)methyl) phenyl)-N-hydroxyacrylamide hydrochloride]
83.6 | 62.3 | 43.3 | 14.2 | 254 | 159 | – | – | – | N#Cc1ccc(-c2c(-c3ccc4c(c3)OCO4)cnc(N3CCC(NCc4ccc(/C=C/C(=O)NO)cc4)CC3)c2C#N)cc1F [Example 103, (E)-3-(4-(((1-(5-(Benzo[d][1,3]dioxol-5-yl)-3-cyano-4-(4-cyano-3-fluorophenyl)pyridin-2-yl)piperidin-4-yl)amino)methyl)phenyl)-N-hydroxyacrylamide formate]
639 | 40.2 | 0.74 | 963 | 2030 | 581 | – | – | – | COc1ccc(-c2cnc(N3CCC(NC(=O)CCCCCCC(=O)NO)CC3)c(C#N)c2-c2ccc(C#N)c(F)c2)cc1O [Example 177, N^1-(1-(3-Cyano-4-(4-cyano-3-fluorophenyl)-5-(3-hydroxy-4-methoxyphenyl)pyridin-2-yl)piperidin-4-yl)-N^8-hydroxyoctanediamide formate]
103 | 3.86 | 13.2 | 10.8 | 235 | 171 | – | – | – | COc1ccc(-c2cnc(N3CCC(NCc4ccc(/C=C/C(=O)NO)cc4OC)CC3)c(C#N)c2-c2ccc(C#N)c(F)c2)cc1O [Example 132, (E)-3-(4-(((1-(3-Cyano-4-(4-cyano-3-fluorophenyl)-5-(3-hydroxy-4-methoxyphenyl)pyridin-2-yl)piperidin-4-yl)amino)methyl)-3-methoxyphenyl)-N-hydroxyacrylamide formate]
25.8 | 18.2 | 4.38 | 1.47 | 86.9 | 322 | – | – | – | N#Cc1ccc(-c2c(-c3ccc(C(F)(F)F)c(O)c3)cnc(N3CCC(NCc4ccc(/C=C/C(=O)NO)cc4)CC3)c2C#N)cc1F [Example 129, (E)-3-(4-(1-(3-Cyano-4-(4-cyano-3-fluorophenyl)-5-(3-hydroxy-4-(trifluoromethyl)phenyl)pyridin-2-yl)piperidin-4-yl)amino)methyl) phenyl)-N-hydroxyacrylamide formate]
403 | 76.6 | 473 | 129 | 677 | 212 | – | – | – | COc1cc(-c2ccc(CN3CC[C@H](NCc4ccc(/C=C/C(=O)NO)cc4)C3)cc2-c2ccc(C#N)c(F)c2)ccc1O [Example 75, (S,E)-3-(4-(((1-((4″-Cyano-3″-fluoro-4-hydroxy-3-methoxy-[1,1:2,1″-terphenyl]-4′-yl)methyl)pyrrolidin-3-yl)amino)methyl)phenyl)-N-hydroxyacrylamide formate]
– | 110 | – | 173 | – | 256 | 190 | 160 | 495 | COc1cc(-c2cnc(N3CC4CC3CC4NCc3ccc(/C=C/C(=O)NO)cc3)c(C#N)c2-c2ccc(C#N)c(F)c2)ccc1O (stereo not drawn) [Example 94, (E)-3-(4-(2-(3-Cyano-4-(4-cyano-3-fluorophenyl)-5-(4-hydroxy-3-methoxyphenyl)pyridin-2-yl)-2-azabicyclo[2.2.1]heptan-5-yl)amino)methyl) phenyl)-N-hydroxyacrylamide formate]
– | 51.8 | – | 4.61 | – | 125 | 99 | 42.3 | 431 | COc1ccc(-c2cnc(N3CCC(NCc4ccc(/C=C/C(=O)NO)cc4)CC3)nc2-c2ccc(C#N)c(F)c2)cc1O [Example 71, (E)-3-(4-(((1-(4-(4-cyano-3-fluorophenyl)-5-(3-hydroxy-4-methoxyphenyl)pyrimidin-2-yl)piperidin-4-yl)amino)methyl)-N-hydroxyacrylamide formate]
91.6 | 61 | 30.7 | 21.4 | 372 | 401 | – | – | – | COc1ccc(-c2cnc(N3CCC4(CC3)CN(Cc3ccc(/C=C/C(=O)NO)cc3)C4)c(C#N)c2-c2ccc(C#N)c(F)c2)cc1O [Example 138, (E)-3-(4-(((7-(3-Cyano-4-(4-cyano-3-fluorophenyl)-5-(3-hydroxy-4-methoxyphenyl)pyridin-2-yl)-2,7-diazaspiro[3.5]nonan-2-yl)methyl)phenyl)-N-hydroxyacrylamide formate]
– | 110 | – | 8.42 | – | 160 | 970 | 166 | 2750 | COc1ccc(-c2ccc(C(=O)N3CC[C@H](NCc4ccc(/C=C/C(=O)NO)cc4)C3)cc2-c2ccc(C#N)c(F)c2)cc1O [Example 72, (S,E)-3-(4-(((1-(4″-cyano-3″-fluoro-3-hydroxy-4-methoxy-[1,1′:2′,1″-terphenyl]-4′-carbonylpyrrolidin-3-yl)amino)methyl)phenyl)-N-hydroxyacrylamide formate]
1950 | 226 | 12 | 0.74 | 3040 | 23.4 | – | – | – | COc1ccc(-c2cnc(N3CCC(NCCCc4ncc(C(=O)NO)s4)CC3)c(C#N)c2-c2ccc(C#N)c(F)c2)cc1O [Example 125, 2-(3-(3-Cyano-4-(4-cyano-3-fluorophenyl)-5-(3-hydroxy-4-methoxyphenyl)pyridin-2-yl)piperidin-4-yl)amino)propyl)-N-hydroxythiazole-5-carboxamide formate]
127 | 404 | 15.6 | 0.35 | 2220 | 17.2 | – | – | – | COc1ccc(-c2cnc(N3CCC(NCC4CCN(c5ccc(C(=O)NO)cc5)CC4)CC3)c(C#N)c2-c2ccc(C#N)c(F)c2)cc1O [Example 121, 4-(4-((1-(3-Cyano-4-(4-cyano-3-fluorophenyl)-5-(3-hydroxy-4-methoxyphenyl)pyridin-2-yl)piperidin-4-yl)amino)methyl) piperidin-1-yl)-N-hydroxybenzamide formate]

— US20250304549A1, “HYDROXYAMIDE DERIVATIVE AND USE THEREOF” (SICHUAN HUIYU PHARMACEUTICAL CO., LTD., priority 2022, published 2025)
